Data reported in patent US9458124B2, “Substituted pyran derivatives” (Wayne State University, priority 2013, dated 2016).
Counter-ions that a name gives are not always drawn.

How the values were obtained:
DAT = molecular target: T1, DAT (Rattus norvegicus, UniProt P23977); assay: DAT uptake inhibition, [3H]DA, rat brain; type: biochemical; settings: number in parentheses within cell
T1 construct: from tissue; host or cells: rat brain

rats = assay: Forced swimming test (animal model of depression), duration of immobility; type: in vivo, rat; settings: sub-chronic oral administration, P<0.01
Description: Compound D-525 was evaluated in Force Swim test which is a well-known animal model of depression. The test procedure consisted of a pretest and test session separated by 24 h. Drugs or vehicle were administered orally (p.o) by following the timeline as described in the standard protocol. Each rat underwent a 5-min swim session following drug administration, which was videotaped and scored later.
All drugs were prepared freshly on the test days. Compound D-525 and imipramine were dissolved in deionized water. All drugs and vehicles were administered p.o. D-525 was administered at a dose of 12.5 and 25 mg/kg. An individual, blinded to the treatment, scored the videotapes for immobility. Immobility scores were analyzed by one way ANOVA test which indicated significant difference between drug treated animals and vehicle.
FIG. 11 provides a bar chart showing the effect of sub-chronic oral administration of vehicle and D-525 on the duration of immobility in the forced swimming test in rats. […] Asterisks indicate a statistically significant difference toward control group that received saline p.o. **P<0.01. Each treatment group contained four to seven rats.

SERT = molecular target: T2, SERT (Rattus norvegicus, UniProt P31652); assay: SERT uptake inhibition, [3H]-5-HT, rat brain; type: biochemical; settings: number in parentheses within cell
T2 construct: from tissue; host or cells: rat brain

NET = molecular target: T3, NET (Rattus norvegicus, UniProt Q63380); assay: NET uptake inhibition, [3H]DA, rat brain; type: biochemical; settings: number in parentheses within cell
T3 construct: from tissue; host or cells: rat brain
T3 sequence (Q63380 1-617): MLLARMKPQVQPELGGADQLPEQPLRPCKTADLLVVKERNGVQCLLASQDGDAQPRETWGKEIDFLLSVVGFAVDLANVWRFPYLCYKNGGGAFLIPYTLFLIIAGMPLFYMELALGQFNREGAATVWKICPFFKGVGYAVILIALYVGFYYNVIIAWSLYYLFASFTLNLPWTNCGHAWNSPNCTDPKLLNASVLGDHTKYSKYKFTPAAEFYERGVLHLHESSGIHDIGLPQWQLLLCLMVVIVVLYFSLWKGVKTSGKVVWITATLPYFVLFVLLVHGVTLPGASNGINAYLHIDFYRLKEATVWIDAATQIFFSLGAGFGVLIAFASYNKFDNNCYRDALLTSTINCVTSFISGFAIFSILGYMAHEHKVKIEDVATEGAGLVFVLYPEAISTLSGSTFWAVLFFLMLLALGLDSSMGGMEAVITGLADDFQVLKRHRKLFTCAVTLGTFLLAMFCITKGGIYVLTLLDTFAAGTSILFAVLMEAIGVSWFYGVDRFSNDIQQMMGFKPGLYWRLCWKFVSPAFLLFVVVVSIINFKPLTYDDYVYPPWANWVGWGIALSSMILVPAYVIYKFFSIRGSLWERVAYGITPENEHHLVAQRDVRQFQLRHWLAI

T1 sequence (P23977 whole entry): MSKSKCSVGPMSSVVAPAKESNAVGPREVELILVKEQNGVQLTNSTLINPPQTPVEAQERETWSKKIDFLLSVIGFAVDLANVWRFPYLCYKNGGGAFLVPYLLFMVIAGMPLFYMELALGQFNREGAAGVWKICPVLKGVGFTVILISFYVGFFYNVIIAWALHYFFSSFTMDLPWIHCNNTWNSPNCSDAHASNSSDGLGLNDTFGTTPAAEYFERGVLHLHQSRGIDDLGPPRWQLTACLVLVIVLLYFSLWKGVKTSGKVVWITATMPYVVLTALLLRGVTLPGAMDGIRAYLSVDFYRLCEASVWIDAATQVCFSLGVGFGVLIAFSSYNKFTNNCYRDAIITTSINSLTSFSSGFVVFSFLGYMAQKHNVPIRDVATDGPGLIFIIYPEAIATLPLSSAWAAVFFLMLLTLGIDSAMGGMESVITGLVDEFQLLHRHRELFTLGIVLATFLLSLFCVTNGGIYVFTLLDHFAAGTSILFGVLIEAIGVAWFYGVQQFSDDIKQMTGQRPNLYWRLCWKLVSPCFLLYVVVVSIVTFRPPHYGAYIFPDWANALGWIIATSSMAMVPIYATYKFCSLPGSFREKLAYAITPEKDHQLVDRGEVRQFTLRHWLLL
T2 sequence (P31652 whole entry): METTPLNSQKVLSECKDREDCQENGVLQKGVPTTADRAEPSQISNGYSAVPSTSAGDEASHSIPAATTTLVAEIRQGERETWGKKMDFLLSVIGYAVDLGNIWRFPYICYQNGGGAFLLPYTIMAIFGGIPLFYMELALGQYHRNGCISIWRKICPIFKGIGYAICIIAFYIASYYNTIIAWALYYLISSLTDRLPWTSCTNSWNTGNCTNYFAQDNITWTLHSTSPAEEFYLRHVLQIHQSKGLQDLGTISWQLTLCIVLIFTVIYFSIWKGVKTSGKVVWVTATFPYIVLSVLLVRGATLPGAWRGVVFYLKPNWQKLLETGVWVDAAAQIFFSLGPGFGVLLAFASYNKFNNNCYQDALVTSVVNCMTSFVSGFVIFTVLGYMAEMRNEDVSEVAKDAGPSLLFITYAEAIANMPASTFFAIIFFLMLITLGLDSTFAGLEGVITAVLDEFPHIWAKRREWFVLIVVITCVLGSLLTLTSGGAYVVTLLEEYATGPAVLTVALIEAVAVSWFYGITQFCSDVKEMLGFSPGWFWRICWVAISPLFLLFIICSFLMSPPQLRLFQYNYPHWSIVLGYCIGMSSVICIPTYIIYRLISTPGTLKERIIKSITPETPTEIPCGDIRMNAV

Compound | melting point [°C] | further results
Cn1c(=O)oc2cc(CN[C@@H]3CO[C@H](C(c4ccc(F)cc4)c4ccc(F)cc4)C[C@H]3O)ccc21 [6f, D-525, 6-((((3R,4R,6S)-6-(bis(4-fluorophenyl)methyl)-4-hydroxytetrahydro-2H-pyran-3-yl)amino)methyl)-3-methylbenzo[d]oxazol-2(3H)-one] |  | Ki (DAT): 25.3 ± 6.2 nM; effect on duration of immobility in the forced swimming test vs vehicle (Dunnett's analysis) (rats; 12 mg/kg): statistically significant different compared to vehicle; effect on duration of immobility in the forced swimming test vs vehicle (Dunnett's analysis) (rats; 25 mg/kg): statistically significant different compared to vehicle; Ki (SERT): 26.9 ± 2.6 nM; Ki (NET): 25.8 ± 7.7 nM
COc1cc(CN[C@@H]2CO[C@H](C(c3ccccc3)c3ccccc3)C[C@H]2O)ccc1O (as salt: hydrochloride) [4c, D-501, (2S,4R,5R)-2-benzhydryl-5-((4-hydroxy-3-methoxybenzyl)amino)tetrahydro-2H-pyran-4-ol] | 203 to 205 | 
O[C@@H]1C[C@@H](C(c2ccccc2)c2ccccc2)OC[C@H]1NCc1ccc2occc2c1 (as salt: hydrochloride) [4a, D-485, (2S,4R,5R)-2-benzhydryl-5-((benzofuran-5-ylmethyl)amino)tetrahydro-2H-pyran-4-ol] | 204 to 206 | 
Oc1cc(O)cc(CN[C@@H]2CO[C@H](C(c3ccccc3)c3ccccc3)C[C@H]2O)c1 (as salt: hydrochloride) [4f, D-542, 5-((((3R,4R,6S)-6-benzhydryl-4-hydroxytetrahydro-2H-pyran-3-yl)amino)methyl)benzene-1,3-diol] | 168 to 170 | 
COc1ccc(CN[C@@H]2CO[C@H](C(c3ccccc3)c3ccccc3)C[C@H]2O)cc1O (as salt: hydrochloride) [4d, D-502, (2S,4R,5R)-2-benzhydryl-5-((3-hydroxy-4-methoxybenzyl)amino)tetrahydro-2H-pyran-4-ol] | 168 to 170 | 
COc1cc(O)cc(CN[C@@H]2CO[C@H](C(c3ccccc3)c3ccccc3)C[C@H]2O)c1 (as salt: hydrochloride) [4e, D-503, (2S,4R,5R)-2-benzhydryl-5-((3-hydroxy-5-methoxybenzyl)amino)tetrahydro-2H-pyran-4-ol] | 160 to 162 | 
COc1cccc(CN[C@@H]2CO[C@H](C(c3ccccc3)c3ccccc3)C[C@H]2O)c1 (as salt: hydrochloride) [4g, D-523, (2S,4R,5R)-2-benzhydryl-5-((3-methoxybenzyl)amino)tetrahydro-2H-pyran-4-ol] | 197 to 199 | 
c1ccc(C(c2ccccc2)[C@@H]2CC[C@H](NCc3ccc4cc[nH]c4c3)CO2)cc1 (as salt: oxalate) [2b, D-543] | 194 to 196 | 
